According to PubChem BioAssay AID256 (DTP/NCI, 2004):
Values joined by “and” are separate entries in the source; they are usually repeats but may differ in a detail not shown here. Equal entries are not always repeated. Toxic doses and inconclusive results are not listed. How the source made its calls: active means survival T/C of 150% or more; inactive means T/C below 125% in these data.

Tested on: CD2F1 mice, L1210 leukemia ip, survival T/C
Experiment: NCI In Vivo Anticancer Drug Screen. Data for tumor model L1210 Leukemia (intraperitoneal) in CD2F1 (CDF1) mice
Details: higher = longer survival
How it was run: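 Compound-dosed mice with transplantable tumor versus matched vehicle controls; endpoint ratio T/C reported.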

[1] = endpoint: mean survival time, dose: 50.0 mg/kg/injection, schedule: Q01DX009 (ip), vehicle: saline with Tween-80
[2] = endpoint: mean survival time, dose: 100.0 mg/kg/injection, schedule: Q01DX001 (ip), vehicle: saline with Tween-80
[3] = endpoint: mean survival time, dose: 200.0 mg/kg/injection, schedule: Q01DX001 (ip), vehicle: saline with Tween-80
[4] = endpoint: mean survival time, dose: 100.0 mg/kg/injection, schedule: Q01DX009 (ip), vehicle: saline with Tween-80
[5] = endpoint: mean survival time, dose: 200.0 mg/kg/injection, schedule: Q01DX009 (ip), vehicle: saline with Tween-80
[6] = endpoint: mean survival time, dose: 100.0 mg/kg/injection, schedule: Q01DX009 (ip), vehicle: other
[7] = endpoint: mean survival time, dose: 200.0 mg/kg/injection, schedule: Q01DX009 (ip), vehicle: other
[8] = endpoint: mean survival time, dose: 400.0 mg/kg/injection, schedule: Q01DX009 (ip), vehicle: other
[9] = endpoint: mean survival time, dose: 100.0 mg/kg/injection, schedule: Q04DX003 (ip), vehicle: saline with Tween-80
[10] = endpoint: mean survival time, dose: 200.0 mg/kg/injection, schedule: Q04DX003 (ip), vehicle: saline with Tween-80
[11] = endpoint: mean survival time, dose: 100.0 mg/kg/injection, schedule: Q04DX002 (ip), vehicle: saline with Tween-80
[12] = endpoint: mean survival time, dose: 400.0 mg/kg/injection, schedule: Q04DX002 (ip), vehicle: saline with Tween-80
[13] = endpoint: mean survival time, dose: 100.0 mg/kg/injection, schedule: Q01DX001 (ip), vehicle: saline
[14] = endpoint: mean survival time, dose: 100.0 mg/kg/injection, schedule: Q01DX009 (ip), vehicle: saline
[15] = endpoint: mean survival time, dose: 100.0 mg/kg/injection, schedule: Q04DX002 (ip), vehicle: saline
[16] = endpoint: mean survival time, dose: 200.0 mg/kg/injection, schedule: Q01DX001 (ip), vehicle: saline
[17] = endpoint: mean survival time, dose: 200.0 mg/kg/injection, schedule: Q01DX009 (ip), vehicle: saline
[18] = endpoint: mean survival time, dose: 200.0 mg/kg/injection, schedule: Q04DX002 (ip), vehicle: saline
[19] = endpoint: mean survival time, dose: 400.0 mg/kg/injection, schedule: Q04DX003 (ip), vehicle: saline with Tween-80
[20] = endpoint: mean survival time, dose: 200.0 mg/kg/injection, schedule: Q01DX001 (ip), vehicle: Klucel (hydroxypropylcellulose) (HPC)
[21] = endpoint: mean survival time, dose: 25.0 mg/kg/injection, schedule: Q01DX001 (ip), vehicle: Klucel (hydroxypropylcellulose) (HPC)

Measured: T/C

O=S(=O)(OCC1C2CC3C(C2)C13)c1ccc(Br)cc1 (stereo not drawn)
inactive: endpoint: mean survival time, dose: 100.0 mg/kg/injection, schedule: Q04DX003 (ip), vehicle: other 101 % of control | endpoint: mean survival time, dose: 200.0 mg/kg/injection, schedule: Q04DX003 (ip), vehicle: other 100 % of control | endpoint: mean survival time, dose: 400.0 mg/kg/injection, schedule: Q04DX003 (ip), vehicle: other 91 % of control

O=C(Nc1ccccc1)Nc1ccc(Cl)c(Cl)c1
inactive: endpoint: mean survival time, dose: 100.0 mg/kg/injection, schedule: Q04DX003 (ip), vehicle: acetone 98 % of control | endpoint: mean survival time, dose: 200.0 mg/kg/injection, schedule: Q04DX003 (ip), vehicle: acetone 101 % of control | endpoint: mean survival time, dose: 400.0 mg/kg/injection, schedule: Q04DX003 (ip), vehicle: acetone 106 % of control

CCCCN(C)CCNc1cc(C)nc(Nc2nc3ccc(Cl)cc3[nH]2)n1
inactive: endpoint: mean survival time, dose: 16.5 mg/kg/injection, schedule: Q01DX009 (ip), vehicle: saline with Tween-80 88 % of control | endpoint: mean survival time, dose: 25.0 mg/kg/injection, schedule: Q01DX009 (ip), vehicle: saline with Tween-80 97 % of control | endpoint: mean survival time, dose: 37.5 mg/kg/injection, schedule: Q01DX009 (ip), vehicle: saline with Tween-80 95 % of control | [1] 90 % of control | [2] 90 % of control | [3] 94 % of control

Cc1cc(C)cc(C(C)C)c1
inactive: [4] 98 % of control | [5] 101 % of control

CC(=O)c1cccc([N+](=O)[O-])c1
inactive: [6] 105 % of control | [7] 97 % of control | [8] 102 % of control

c1ccc(Cn2cc(CCc3ccncc3)c3ccccc32)cc1
inactive: [1] 88 % of control | [4] 93 % of control | [9] 91 % of control | [10] 92 % of control

NC1=NC(=S)CS1
inactive: endpoint: mean survival time, dose: 75.0 mg/kg/injection, schedule: Q01DX001 (ip), vehicle: saline 95 % of control | endpoint: mean survival time, dose: 150.0 mg/kg/injection, schedule: Q01DX001 (ip), vehicle: saline 95 % of control | endpoint: mean survival time, dose: 300.0 mg/kg/injection, schedule: Q01DX001 (ip), vehicle: saline 87 % of control

O=[N+]([O-])c1ccc(SC2CCC(Cl)C3CCCCC23)c([N+](=O)[O-])c1 (stereo not drawn)
inactive: endpoint: mean survival time, dose: 25.0 mg/kg/injection, schedule: Q04DX002 (ip), vehicle: saline with Tween-80 93 % of control | endpoint: mean survival time, dose: 50.0 mg/kg/injection, schedule: Q04DX002 (ip), vehicle: saline with Tween-80 90 % of control | [11] 86 % of control and 93 % of control | [12] 86 % of control

CC(Sc1ccccc1)C(=O)OC1C=CCCC1 (stereo not drawn)
inactive: [11] 98 % of control | endpoint: mean survival time, dose: 200.0 mg/kg/injection, schedule: Q04DX002 (ip), vehicle: saline with Tween-80 106 % of control | [12] 98 % of control

O=CNc1ccc(C(=O)O)c(O)c1
inactive: [13] 95 % of control | [14] 94 % of control and 95 % of control | [15] 97 % of control | [9] 100 % of control | [16] 100 % of control and 106 % of control | [17] 96 % of control and 98 % of control | [18] 86 % of control and 94 % of control | [10] 98 % of control | endpoint: mean survival time, dose: 400.0 mg/kg/injection, schedule: Q01DX001 (ip), vehicle: saline 88 % of control and 92 % of control | endpoint: mean survival time, dose: 400.0 mg/kg/injection, schedule: Q01DX009 (ip), vehicle: saline 100 % of control | endpoint: mean survival time, dose: 400.0 mg/kg/injection, schedule: Q04DX002 (ip), vehicle: saline 92 % of control and 108 % of control | [19] 98 % of control

C[Si](C)(C)/C(=N/Nc1ccc([N+](=O)[O-])cc1[N+](=O)[O-])c1ccccc1
inactive: endpoint: mean survival time, dose: 100.0 mg/kg/injection, schedule: Q01DX001 (ip), vehicle: Klucel (hydroxypropylcellulose) (HPC) 97 % of control | [20] 95 % of control | endpoint: mean survival time, dose: 400.0 mg/kg/injection, schedule: Q01DX001 (ip), vehicle: Klucel (hydroxypropylcellulose) (HPC) 92 % of control

O=C(Nc1c(Oc2ccc(Cl)cc2)ccc(Cl)c1S(=O)(=O)O)Nc1c(Oc2ccc(Cl)c(Cl)c2)ccc(Cl)c1S(=O)(=O)O
inactive: [13] 93 % of control | [16] 88 % of control

COc1cc2c(cc1OC)C(=O)C(C)(c1ccccc1)NC2 (stereo not drawn)
inactive: [9] 96 % of control | [10] 96 % of control | [19] 94 % of control

COC1C=CC=CC=C1
inactive: endpoint: mean survival time, dose: 15.0 mg/kg/injection, schedule: Q04DX003 (ip), vehicle: saline sonified 100 % of control | endpoint: mean survival time, dose: 30.0 mg/kg/injection, schedule: Q04DX003 (ip), vehicle: saline sonified 94 % of control | endpoint: mean survival time, dose: 60.0 mg/kg/injection, schedule: Q04DX003 (ip), vehicle: saline sonified 100 % of control

O/N=C1/CCCC/C1=C/c1ccccc1
inactive: [4] 103 % of control | [5] 97 % of control | endpoint: mean survival time, dose: 400.0 mg/kg/injection, schedule: Q01DX009 (ip), vehicle: saline with Tween-80 97 % of control

CN(C)c1ccc2c(c1)Oc1cc(N(C)C)ccc1C21OC(=O)c2ccccc21
inactive: [2] 97 % of control | [3] 101 % of control | endpoint: mean survival time, dose: 400.0 mg/kg/injection, schedule: Q01DX001 (ip), vehicle: saline with Tween-80 97 % of control

COC(=O)c1ccc(NC(=O)Cc2c(O)c3c(c(C)c2OC)COC3=O)cc1N
inactive: [15] 100 % of control | [18] 112 % of control | endpoint: median survival time, dose: 100.0 mg/kg/injection, schedule: Q04DX002 (ip), vehicle: saline 102 % of control | endpoint: median survival time, dose: 200.0 mg/kg/injection, schedule: Q04DX002 (ip), vehicle: saline 106 % of control

CCCCCCCCCN=C(N)CSSCC(N)=NCCCCCCCCC
inactive: endpoint: mean survival time, dose: 12.5 mg/kg/injection, schedule: Q01DX001 (ip), vehicle: Klucel (hydroxypropylcellulose) (HPC) 94 % of control | [21] 101 % of control

c1ccc(CNCc2ccccc2)cc1
inactive: endpoint: mean survival time, dose: 100.0 mg/kg/injection, schedule: Q04DX003 (ip), vehicle: Klucel (hydroxypropylcellulose) (HPC) 97 % of control | endpoint: mean survival time, dose: 200.0 mg/kg/injection, schedule: Q04DX003 (ip), vehicle: Klucel (hydroxypropylcellulose) (HPC) 100 % of control

CCCC(CCC)=NCCN=C(CCC)CCC
inactive: endpoint: mean survival time, dose: 100.0 mg/kg/injection, schedule: Q04DX003 (ip), vehicle: saline sonified 97 % of control | endpoint: mean survival time, dose: 200.0 mg/kg/injection, schedule: Q04DX003 (ip), vehicle: saline sonified 97 % of control | endpoint: mean survival time, dose: 400.0 mg/kg/injection, schedule: Q04DX003 (ip), vehicle: saline sonified 97 % of control

CC(C)(C)OC(=O)NCCCCC(N)C(=O)OC(C)(C)C (stereo not drawn)
inactive: endpoint: mean survival time, dose: 100.0 mg/kg/injection, schedule: Q04DX003 (ip), vehicle: saline 96 % of control | endpoint: mean survival time, dose: 200.0 mg/kg/injection, schedule: Q04DX003 (ip), vehicle: saline 93 % of control

CCOC(=O)Nc1cc2c(c(N)n1)N=C(CCc1ccccc1)CN2
inactive: [21] 107 % of control | endpoint: mean survival time, dose: 50.0 mg/kg/injection, schedule: Q01DX001 (ip), vehicle: Klucel (hydroxypropylcellulose) (HPC) 114 % of control | [20] 116 % of control

O=C(O)Cc1ccc(Cl)cc1
inactive: endpoint: mean survival time, dose: 75.0 mg/kg/injection, schedule: Q01DX009 (ip), vehicle: saline with Tween-80 96 % of control | endpoint: mean survival time, dose: 150.0 mg/kg/injection, schedule: Q01DX009 (ip), vehicle: saline with Tween-80 102 % of control | endpoint: mean survival time, dose: 300.0 mg/kg/injection, schedule: Q01DX009 (ip), vehicle: saline with Tween-80 88 % of control

CCCC(O)C[N+](=O)[O-] (stereo not drawn)
inactive: [14] 104 % of control | [17] 111 % of control

COC(=O)c1cc(OC)cc(OC)c1
inactive: [6] 96 % of control | [7] 110 % of control | [8] 91 % of control

CN(C)C1c2ccccc2-c2ccc(NC(=O)C(F)(F)F)cc21 (stereo not drawn)
inactive: endpoint: mean survival time, dose: 50.0 mg/kg/injection, schedule: Q01DX001 (ip), vehicle: carboxymethylcellulose (CMC) 107 % of control | endpoint: mean survival time, dose: 100.0 mg/kg/injection, schedule: Q01DX001 (ip), vehicle: carboxymethylcellulose (CMC) 92 % of control | endpoint: mean survival time, dose: 200.0 mg/kg/injection, schedule: Q01DX001 (ip), vehicle: carboxymethylcellulose (CMC) 95 % of control | endpoint: mean survival time, dose: 400.0 mg/kg/injection, schedule: Q01DX001 (ip), vehicle: carboxymethylcellulose (CMC) 113 % of control
